Experimental data published in ChEMBL document CHEMBL1955738, “Synthesis and antitumor activity of 5,6-dihydro-17-hydroxy icogenin analogs” (Eur J Med Chem, 2012).

Tests used:
Assay type in all cases: functional, cell-based
A549 = test: Cytotoxicity against human A549 cells by MTT assay
HeLa = test: Cytotoxicity against human HeLa cells by MTT assay
BGC-823 = test: Cytotoxicity against human BGC823 cells by MTT assay
KB = test: Cytotoxicity against human KB cells by MTT assay
HCT-8 = test: Cytotoxicity against human HCT8 cells by MTT assay
Bel-7402 = test: Cytotoxicity against human Bel7402 cells by MTT assay
A2780 = test: Cytotoxicity against human A2780 cells by MTT assay
HL-60 = test: Cytotoxicity against human HL60 cells

CO[C@]1(CC[C@@H](C)CO)O[C@H]2C[C@H]3[C@@H]4CCC5C[C@@H](O)CC[C@]5(C)[C@H]4CC[C@]3(C)[C@@]2(O)[C@@H]1C (some centres not stated)
IC50 (A549): > 10 µM | IC50 (HeLa): > 10 µM | IC50 (BGC-823): > 10 µM | IC50 (KB): > 10 µM | IC50 (HCT-8): > 10 µM | IC50 (Bel-7402): > 10 µM | IC50 (A2780): > 10 µM

CO[C@]1(CC[C@@H](C)CO)O[C@H]2C[C@H]3[C@@H]4CCC5C[C@@H](O[C@@H]6O[C@H](CO)[C@@H](O)[C@H](O)[C@H]6O)CC[C@]5(C)[C@H]4CC[C@]3(C)[C@@]2(O)[C@@H]1C (some centres not stated)
IC50 (A549): > 10 µM | IC50 (HeLa): > 10 µM | IC50 (BGC-823): > 10 µM | IC50 (KB): > 10 µM | IC50 (HCT-8): > 10 µM | IC50 (Bel-7402): > 10 µM | IC50 (A2780): > 10 µM

CO[C@]1(CC[C@@H](C)CO)O[C@H]2C[C@H]3[C@@H]4CCC5C[C@@H](O[C@H]6O[C@H](CO)[C@@H](O)[C@H](O)[C@H]6O[C@@H]6O[C@@H](C)[C@H](O)[C@@H](O)[C@H]6O)CC[C@]5(C)[C@H]4CC[C@]3(C)[C@@]2(O)[C@@H]1C (some centres not stated)
IC50 (A549): 3.68 µM | IC50 (HeLa): 7.8 µM | IC50 (BGC-823): 4.29 µM | IC50 (KB): 5.97 µM | IC50 (HCT-8): 3.38 µM | IC50 (Bel-7402): 8.3 µM | IC50 (A2780): 7.96 µM

CO[C@]1(CC[C@@H](C)CO)O[C@H]2C[C@H]3[C@@H]4CCC5C[C@@H](O[C@H]6O[C@H](CO)[C@@H](O[C@@H]7O[C@H](CO)[C@@H](O)[C@H](O)[C@H]7O)[C@H](O)[C@H]6O[C@@H]6O[C@@H](C)[C@H](O)[C@@H](O)[C@H]6O)CC[C@]5(C)[C@H]4CC[C@]3(C)[C@@]2(O)[C@@H]1C (some centres not stated)
IC50 (A549): 1.9 µM | IC50 (HeLa): 8.31 µM | IC50 (BGC-823): 7.97 µM | IC50 (KB): 5.24 µM | IC50 (HCT-8): 6.05 µM | IC50 (Bel-7402): 9.69 µM | IC50 (A2780): 8.21 µM

C[C@@H]1CC[C@@]2(OC1)O[C@H]1C[C@H]3[C@@H]4CC=C5C[C@@H](O[C@@H]6O[C@H](CO)[C@@H](O[C@@H]7O[C@@H](C)[C@H](O)[C@@H](O)[C@H]7O)[C@H](O)[C@H]6O[C@@H]6O[C@@H](C)[C@H](O)[C@@H](O)[C@H]6O)CC[C@]5(C)[C@H]4CC[C@]3(C)[C@H]1[C@@H]2C [DIOSCIN]
IC50 (A549): 0.81 µM | IC50 (HeLa): 0.5 µM | IC50 (BGC-823): 1.08 µM | IC50 (KB): 0.53 µM | IC50 (HCT-8): 0.34 µM | IC50 (Bel-7402): 0.81 µM | IC50 (A2780): 0.87 µM

CO[C@]1(CC[C@H](C)CO)O[C@H]2C[C@H]3[C@@H]4CC=C5C[C@@H](O[C@@H]6O[C@H](CO)[C@@H](O)[C@H](O[C@@H]7O[C@H](CO)[C@@H](O)[C@H](O)[C@H]7O)[C@H]6O[C@@H]6O[C@@H](C)[C@H](O)[C@@H](O)[C@H]6O)CC[C@]5(C)[C@H]4CC[C@]3(C)[C@H]2[C@@H]1C [ICOGENIN]
IC50 (HL-60): 2.6 µM

C[C@@H](CC[C@@]1(O)O[C@H]2C[C@H]3[C@@H]4CC[C@@H]5C[C@@H](O[C@@H]6O[C@H](CO)[C@H](O)[C@H](O)[C@H]6O[C@@H]6O[C@H](CO)[C@@H](O)[C@H](O)[C@H]6O)CC[C@]5(C)[C@H]4CC[C@]3(C)[C@H]2[C@@H]1C)CO[C@@H]1O[C@H](CO)[C@@H](O)[C@H](O)[C@H]1O [TIMOSAPONIN BII]
IC50 (HL-60): 15.5 µg/mL
